Measured values as given in patent US8558019B2, “Thiolated paclitaxels for reaction with gold nanoparticles as drug delivery agents” (Virginia Tech Intellectual Properties, Inc., priority 2007, dated 2013).

System: B16/F10 melanoma cells
Experiment: Efficacy study in tumor-burdened mice, tumor volume and mortality
Assay type: in vivo, C57BL/6 mice
Conditions: paclitaxel 40 mg/kg, formulations […], day 0, 2, 5 and 7
Description: The efficacy of the formulated nanodrugs was compared to that of unformulated paclitaxel for the treatment of tumor-burdened mice. For these studies C57BL/6 mice were implanted with B16/F10 melanoma cells. Once the cells formed tumors with an approximate volume of 500 mm^3 the mice (n=4/group/formulation) received an injection of either unformulated paclitaxel or one of the formulations (Formulations II, IV and XIII). Paclitaxel was given at a dose of 40 mg/kg, whereas the formulated drugs were administered at a dose of 2.5 mg/kg. The mice were treated on day 0, 2, 5 and 7 of the days and tumor responses were determined by measuring tumor volume during the course of the study

CC(=O)O[C@H]1C(=O)[C@@]2(C)[C@H]([C@H](OC(=O)c3ccccc3)[C@]3(O)C[C@H](OC(=O)[C@H](O)[C@@H](NC(=O)c4ccccc4)c4ccccc4)C(C)=C1C3(C)C)[C@]1(OC(C)=O)CO[C@@H]1C[C@@H]2O [unformulated paclitaxel, Paclitaxel]
mortality rate: 75%
